Measurements: patent US7250432B2, “Pharmaceutical compositions of diaryl-isoxazole derivatives for the prevention and treatment of cancers” (Korea Research Institute of Bioscience and Biotechnology, priority 2003, dated 2007)

Assays:
[1] = system: breast cancer cell line (MDA-MB-231); experiment: Analysis of cell migration (modified Boyden chamber); type: cell-based; conditions: for Cell migration inhibition rate / inhibition at 1 µM / inhibition at 10 µM: breast cancer cells, 18 hours; for inhibition at 1 µM / inhibition at 10 µM: read-out: Cell migration inhibition rate
Procedure: In order to investigate cell migration, modified Boyden chamber and 8 μm pore membrane were purchased from Neuro probe Co. and staining solution for cell staining, Giemsa solution, was purchased from Sigma Co. Other instruments used were CO2 incubator for cell culture, centrifuge for cell washing and inverted microscope (TE 300, Nikon, Japan) for observation.
Particularly, 90% grown up cells on a culture plate were isolated using trypsin/EDTA. The cells were treated with soybean trypsin inhibitor, and washed with serum free medium three times. Then, cell density was adjusted to 4×10^5 cells/ml. The compounds of Example 1-6 and a medium supplemented with 10% FBS were put by 30 μl each in a chamber well of the bottom of modified Boyden chamber, on which 8 μm pore membrane was put. Silicon gasket was placed over and finally a top plate was put on the gasket and fastened with a nut. The cultured cells were put in a well of top plate by 50 μl. The chamber was rapped and further cultured in a 37° C. 5% CO2 incubator for 18 hours.
18 hours later, the nut was taken out. Membrane was separated and fixed in methanol for 10 minutes, followed by drying in the air. After membrane was completely dried, it was stained in Giemsa solution for 90 minutes. At that time, the staining solution was diluted with distilled water at the ratio of 1:10 before use. Upon competing staining, the membrane was dipped in distilled water for about 10 seconds for washing. The membrane was put on a cover slip with a part having cells not shifted heading up and scrubbed with a cotton swab carefully. Manicure was put on the edge of the cover slip, which was then fixed well on a slide glass. The number of migrated cells on the sample prepared above was investigated under inverted microscope.
Cell migration inhibition rate (%)=100−[Number of migrated cells treated with test samples/Number of migrated cells of control]×100
For a control group, only 1% dimethyl sulfoxide […]) was added instead of a compound of the present invention.

[2] = Acute oral toxicity test in rats; type: in vivo
Procedure: 6-week old SPF (specific pathogen-free) SD line rats were used in the acute toxicity test. Compound 1 of the present invention was suspended in 0.5% methylcellulose solution and orally administered once to 2 rats per group. Death, clinical symptoms, and weight change in rats were observed, hematological tests and biochemical tests of blood were performed, and any abnormal signs in the gastrointestinal organs of chest and abdomen were checked with eyes during autopsy.

zebrafish = experiment: Angiogenesis inhibition in zebrafish embryos (subintestinal vessels); type: in vivo; conditions: FIG. 4
Procedure: Experimental instruments used for the invention were temperature-controlled incubator for the incubation of embryo and inverted microscope (TE 300, Nikon, Japan) equipped with a digital camera for observation and confirmation for the results.
Embryos of zebrafish were loaded on a 96-well plate by three embryos per well. The embryos were confirmed to be synchronized embryos which means one day has passed after development. The compounds of the present invention were dissolved in 0.1% DMSO to prepare different concentrations for each compound. Each compound was treated to 4 wells and inhibition of subintestinal vessels (SIVs) in 12 embryos was investigated. To prepare a control, 8 wells were treated with 0.1% DMSO (in embryo water: 0.2 g/l instant ocean salt) (Randall T. Peterson, et al, Proc. Natl. Aced. Sci. USA, 2000, 97: 12965).
For the observation of angiogenic vessels (SIVs), an rmmunological approach of Catherine E. Willet, et al. (Catherine E. Willet, et al., Angiogenesis, 1999, 3: 353), was used in the present invention. Particularly, three days after development, an embryo was fixed in 4% paraformaldehyde at room temperature for 2 hours. The embryo was washed twice with PBS, and dehydrated step by step with PBS, 25%, 50%, 75% and 100% methanol. Then, the embryo was rehydrated step by step with 100%, 75%, 50% and 25% methanol and PBS. […]

HUVEC = experiment: in vitro endothelial morphogenesis assay (tube formation); type: cell-based, human
Procedure: Angiogenesis inhibition activity of the compound of the present invention was investigated by in vitro endothelial morphogenesis assay using human originated cell line HUVEC.
24-well cell culture plate and matrigel matrix were purchased from BD biosciences Co. Other instruments used for the experiments were CO2 incubator for cell culture and inverted microscope (TE 300, Nikon, Japan) equipped with a digital camera for observation and confirmation of the result.
Particularly, starvation of HUVECs on a serum free medium was performed for overnight. Each well of 24-well cell culture plate was coated with 0.2 Ml of matrigel matrix, which was cultured in a 37° C. incubator for 1 hour. 0.2 Ml of cell culture solution with the cell density of 20000 was put in each well, which was further cultured in a CO2 incubator for 30 minutes. Then, a fresh medium, which was diluted with different concentrations of the compounds of Example 1-6, was given to each well. 1% serum was added to the wells, followed by further culture for 24 hours. Tube formation by HUVECs is observed. In this invention, inhibition of tube formation by the compound of the present invention was observed under inverted microscope, and the results were shown in FIG. 2 and FIG. 3. […]

[3] = Homo sapiens, MDA-MB-231, 10 uM

For “5-(2,4-dimethoxy-5-ethylphenyl)-4-(4-bromophenyl)isoxazole [Example 2]”, which “Cell migration inhibition rate” value ([1]; 1 uM) is on record?
The value was 90.80%.

What about the “Cell migration inhibition rate” value ([1]; 10 uM) of the same compound?
Its value is 94.80%.

For CCc1cc(-c2oncc2-c2ccc(OC)cc2)c(OCc2ccccc2)cc1OC [Example 4, 5-(2-benzyloxy-5-ethyl-4-methoxyphenyl)-4-(4-methoxyphenyl)isoxazole], which inhibition at 1 µM ([1]; Homo sapiens, MDA-MB-231, 1 uM) is on record?
Its inhibition at 1 µM is 54.6%.

What about the inhibition at 10 µM [1, 3] of the same compound?
Its inhibition at 10 µM is 70.1%.

With CCc1cc(-c2oncc2-c2ccc(O)cc2)c(O)cc1O [Example 6, 5-(2,4-dihydroxy-5-ethylphenyl)-4-(4-hydroxyphenyl)isoxazole] as the compound, how does the inhibition at 1 µM ([1]; Homo sapiens, MDA-MB-231, 1 uM) read?
Its inhibition at 1 µM is 79.5%.

And the inhibition at 10 µM [1, 3]?
The inhibition at 10 µM was 79.4%.

Which results are given for CCc1cc(-c2oncc2-c2ccc(OC)cc2)c(O)cc1OC [Example 1, 5-(5-ethyl-2-hydroxy-4-methoxyphenyl)-4-(4-methoxyphenyl)isoxazole]?
LD50 ([2]; SD, rat, in vivo, rats, oral, read-out: estimated LD50): > 1500 mg/kg; clinical symptoms, weight change, death ([2]; rat, in vivo, po): did not cause any specific clinical symptoms, weight change, or death; hematological tests, biochemical tests of blood, autopsy ([2]; rat, in vivo, po): No change was observed; level up to which no toxic change was caused ([2]; rats, single oral administration): ≤ 1000 mg/kg; inhibition of angiogenesis in zebrafish (zebrafish; 0.5 μM): inhibited angiogenesis; inhibition at 0.5 µM (zebrafish; Danio rerio, 500 nM): ≤ 50%; inhibition of tube formation in vascular endothelial cells (HUVEC; 0.01 μM, FIG. 2): already detected; inhibition of tube formation in vascular endothelial cells (HUVEC; 1 μM, FIG. 3): inhibited tube formation; inhibition at 1 µM ([1]; Homo sapiens, MDA-MB-231, 1 uM): 92.3%; inhibition at 10 µM [1, 3]: 94.5%; inhibition at 0.05 µM ([1]; Homo sapiens, 50 nM, MDA-MB-231, FIG. 1): ≤ 50%

With CCc1cc(-c2oncc2-c2ccc(O)cc2)c(O)cc1OC [Example 5, 5-(5-ethyl-2-hydroxy-4-methoxyphenyl)-4-(4-hydroxyphenyl)isoxazole] as the compound, how does the inhibition at 1 µM ([1]; Homo sapiens, MDA-MB-231, 1 uM) read?
The inhibition at 1 µM was 43.5%.

What about the inhibition at 10 µM [1, 3] of the same compound?
The inhibition at 10 µM was 43.3%.

With CCc1cc(-c2oncc2-c2ccc(OC)cc2)c(OC)cc1OC [Example 3, 5-(2,4-dimethoxy-5-ethylphenyl)-4-(4-methoxyphenyl)isoxazole] as the compound, how does the inhibition at 1 µM ([1]; Homo sapiens, MDA-MB-231, 1 uM) read?
The inhibition at 1 µM was 68.4%.

What about the inhibition at 10 µM [1, 3] of the same compound?
The inhibition at 10 µM was 82.5%.
